Experiment [1] deals with T1, human recombinant histamine H1 receptor (Homo sapiens, UniProt P35367).
T1 construct: expressed in transfected cells; host or cells: CHO cells
In words: Histamine H1 radioligand binding ([3H]Pyrilamine). As to conditions: 1 μM; read-out: Binding data (Percentage Inhibition) Histamine Binding (1 μM) H1. On the procedure: To evaluate in radioligand binding assays the activity of compounds of the invention, human recombinant histamine H1 receptor expressed in Chinese hamster ovary (CHO) cells (De Backer, M. D. et al., Biochem. Biophys. Res. Comm. 197(3):1601, 1993) in a modified Tris-HCl buffer (50 mM Tris-HCl, pH 7.4, 2 mM MgCl2, 100 mM NaCl, 250 mM Sucrose) was used. Compounds of the invention were incubated with 1.2 nM [^3H]Pyrilamine for 180 minutes at 25° C. Non-specific binding was estimated in the presence of 1 μM pyrilamine. Receptor proteins were filtered and washed, the filters were then counted to determine [^3H]Pyrilamine specifically bound. […] Biochemical assay results are presented as the percent inhibition of specific binding in Table 3.

In experiment [2] the target is T2, human recombinant histamine H2 receptor (Homo sapiens, UniProt P25021).
T2 construct: expressed in transfected cells; host or cells: CHO-K1 cells
T2 sequence (P25021 whole entry): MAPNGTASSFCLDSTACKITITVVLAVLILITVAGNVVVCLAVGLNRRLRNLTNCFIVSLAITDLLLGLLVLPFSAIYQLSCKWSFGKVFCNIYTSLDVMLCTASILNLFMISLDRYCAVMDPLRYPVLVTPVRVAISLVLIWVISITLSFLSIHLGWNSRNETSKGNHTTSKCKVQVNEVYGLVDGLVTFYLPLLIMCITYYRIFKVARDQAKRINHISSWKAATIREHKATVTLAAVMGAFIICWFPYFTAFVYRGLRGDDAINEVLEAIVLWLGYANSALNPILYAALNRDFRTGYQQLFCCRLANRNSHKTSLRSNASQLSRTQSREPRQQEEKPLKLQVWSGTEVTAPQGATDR
The experiment in a line: Histamine H2 radioligand binding ([125I]Aminopotentidine). As to conditions: 1 μM; inhibition of specific [125I]Aminopotentidine binding; read-out: Binding data (Percentage Inhibition) Histamine Binding (1 μM) H2. On the procedure: To evaluate in radioligand binding assays the activity of compounds of the invention, human recombinant histamine H2 receptor expressed in Chinese hamster ovary (CHO) K1 cells (Ruat, M., Proc. Natl. Acad. Sci. USA. 87(5):1658, 1990) in a 50 mM Phosphate buffer, pH 7.4 was used. Compounds of the invention were incubated with 0.1 nM [^125I]Aminopotentidine for 120 minutes at 25° C. Non-specific binding was estimated in the presence of 3 μM Tiotidine. Receptor proteins were filtered and washed, the filters were then counted to determine [^125I]Aminopotentidine specifically bound. Compounds were screened at 1 μM or lower, using 1% DMSO as vehicle. Biochemical assay results are presented as the percent inhibition of specific binding in Table 3.

Experiment [3] has as its target T3, human recombinant dopamine D2L receptor (Homo sapiens, UniProt P14416).
T3 construct: expressed in transfected cells; host or cells: CHO cells
In words: Dopamine D2L radioligand binding ([3H]Spiperone). The following applies: 2 h, 1 μM ligand conc.; read-out: Percent Inhibition of ligand binding Dopamine (1 μM ligand conc.) D2L. As for the experimental part:
To evaluate in radioligand binding assays the activity of compounds of the invention, human recombinant dopamine D2L receptor expressed in Chinese hamster ovary (CHO) cells (Grandy, D. K. et al. Proc. Natl. Acad. Sci. USA. 86:9762, 1989; Hayes, G. et al., Mol. Endocrinol. 6:920, 1992) in a modified Tris-HCl buffer (50 mM Tris-HCl, pH 7.4, 1.4 mM Ascorbic Acid, 0.001% BSA, 150 mM NaCl) was used. Compounds of the invention were incubated with 0.16 nM [^3H]Spiperone for 120 minutes at 25° C. Non-specific binding was estimated in the presence of […] Haloperidol. Receptor proteins were filtered and washed, the filters were then counted to determine [^3H]Spiperone specifically bound. Compounds were screened at 1 μM or lower, using 1% DMSO as vehicle. Biochemical assay results are presented as the percent inhibition of specific binding in Table 4.

For experiment [4], the target named is T4, human recombinant serotonin (5-Hydroxytryptamine) 5-HT2A receptor (Homo sapiens, UniProt P28223).
T4 construct: expressed in transfected cells; host or cells: CHO-K1 cells
T4 sequence (P28223 whole entry): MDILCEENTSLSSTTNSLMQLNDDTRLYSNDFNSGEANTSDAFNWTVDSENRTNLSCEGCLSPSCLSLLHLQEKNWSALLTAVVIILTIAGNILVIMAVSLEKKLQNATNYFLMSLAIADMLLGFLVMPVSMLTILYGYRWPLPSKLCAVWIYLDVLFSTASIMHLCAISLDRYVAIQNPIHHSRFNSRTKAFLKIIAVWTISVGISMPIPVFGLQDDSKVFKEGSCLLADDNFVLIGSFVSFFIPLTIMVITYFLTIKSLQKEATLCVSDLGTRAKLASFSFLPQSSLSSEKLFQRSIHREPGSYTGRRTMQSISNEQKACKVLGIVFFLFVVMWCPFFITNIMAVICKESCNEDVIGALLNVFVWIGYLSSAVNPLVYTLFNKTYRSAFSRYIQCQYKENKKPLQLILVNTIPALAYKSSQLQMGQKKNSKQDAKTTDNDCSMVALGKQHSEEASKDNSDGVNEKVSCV
In words: Serotonin 5-HT2A radioligand binding ([3H]Ketanserin). The following applies: 1 h; read-out: Percent Inhibition of ligand binding Serotonin (1 μM ligand concentration) 5-HT2A. As for the experimental part: To evaluate in radioligand binding assays the activity of compounds of the invention, human recombinant serotonin (5-Hydroxytryptamine) 5-HT2A receptor expressed in Chinese hamster ovary (CHO-K1) cells (Bonhaus, D. W. et al. Br. J. Pharmacol. 115:622, 1995; Saucier, C. and Albert, P. R., J. Neurochem. 68:1998, 1997) in a 50 mM Tris-HCl buffer, pH 7.4, was used. Compounds of the invention were incubated with 0.5 nM [^3H]Ketanserin for 60 minutes at 25° C. Non-specific binding was estimated in the presence of 1 μM Mianserin. Receptor proteins were filtered and washed, the filters were then counted to determine [^3H]Ketanserin specifically bound. Compounds were screened at 1 μM or lower, using 1% DMSO as vehicle. Biochemical assay results are presented as the percent inhibition of specific binding in Table 5.

The target of experiment [5] is T5, human recombinant serotonin (5-Hydroxytryptamine) 5-HT2C receptor (Homo sapiens, UniProt P28335).
T5 construct: expressed in transfected cells; host or cells: CHO-K1 cells
T5 sequence (P28335 33-458): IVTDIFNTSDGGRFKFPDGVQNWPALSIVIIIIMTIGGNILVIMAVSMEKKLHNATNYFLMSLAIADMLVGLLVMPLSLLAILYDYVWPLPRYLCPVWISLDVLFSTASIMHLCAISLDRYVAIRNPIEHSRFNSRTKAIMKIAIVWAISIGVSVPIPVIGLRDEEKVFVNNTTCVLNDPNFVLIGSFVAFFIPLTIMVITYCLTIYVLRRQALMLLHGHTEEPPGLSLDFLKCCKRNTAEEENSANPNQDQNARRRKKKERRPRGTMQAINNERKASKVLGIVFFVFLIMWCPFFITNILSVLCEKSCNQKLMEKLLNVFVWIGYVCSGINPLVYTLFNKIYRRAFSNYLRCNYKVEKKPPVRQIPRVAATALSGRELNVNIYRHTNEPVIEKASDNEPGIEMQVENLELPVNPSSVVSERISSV
The experiment in a line: Serotonin 5-HT2C radioligand binding ([3H]Mesulergine). As to conditions: 1 h; read-out: Percent Inhibition of ligand binding Serotonin (1 μM ligand concentration) 5-HT2C. On the procedure: Compounds of the invention were incubated with 1 nM [^3H]Mesulergine for 60 minutes at 25° C. Non-specific binding was estimated in the presence of 1 μM Mianserin. Receptor proteins were filtered and washed, the filters were then counted to determine [^3H]Mesulergine specifically bound. […] Biochemical assay results are presented as the percent inhibition of specific binding in Table 5.

In experiment [6] the target is T6, human recombinant serotonin (5-Hydroxytryptamine) 5-HT6 receptor (Homo sapiens, UniProt P50406).
T6 construct: expressed in transfected cells; host or cells: human HeLa cells
T6 sequence (P50406 whole entry): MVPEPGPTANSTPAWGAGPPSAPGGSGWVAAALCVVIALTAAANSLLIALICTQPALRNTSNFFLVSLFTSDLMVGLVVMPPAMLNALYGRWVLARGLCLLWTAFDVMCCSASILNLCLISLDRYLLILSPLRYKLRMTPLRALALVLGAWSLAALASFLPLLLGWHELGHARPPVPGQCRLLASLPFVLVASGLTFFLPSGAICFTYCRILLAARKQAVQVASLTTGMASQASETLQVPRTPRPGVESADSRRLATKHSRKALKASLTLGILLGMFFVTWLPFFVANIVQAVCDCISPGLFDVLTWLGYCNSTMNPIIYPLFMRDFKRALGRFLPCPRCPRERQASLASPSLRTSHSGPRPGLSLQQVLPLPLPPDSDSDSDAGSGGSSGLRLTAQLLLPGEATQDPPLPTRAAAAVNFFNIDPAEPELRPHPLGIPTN
In words: Serotonin 5-HT6 radioligand binding ([3H]LSD). As to conditions: 2 h; read-out: Percent Inhibition of ligand binding Serotonin (1 μM ligand concentration) 5-HT6. On the procedure: To evaluate in radioligand binding assays the activity of compounds of the invention, human recombinant serotonin (5-Hydroxytryptamine) 5-HT6 receptor expressed in human HeLa cells (Monsma, F. J. Jr. et al., Mol. Pharmacol. 43:320, 1993) in a modified Tris-HCl buffer (50 mM Tris-HCl, pH 7.4, 150 mM NaCl, 2 mM Ascorbic Acid, 0.001% BSA) was used. Compounds of the invention were incubated with 1.5 nM [3H]Lysergic acid diethylamide (LSD) for 120 minutes at 37° C. Non-specific binding was estimated in the presence of […] Serotonin (5-HT). Receptor proteins were filtered and washed, the filters were then counted to determine [3H]LSD specifically bound. Compounds were screened at 1 μM or lower, using 1% DMSO as vehicle. Biochemical assay results are presented as the percent inhibition of specific binding in Table 5.

The target of experiment [7] is T7, human recombinant serotonin (5-Hydroxytryptamine) 5-HT7 receptor (Homo sapiens, UniProt P34969).
T7 construct: expressed in transfected cells; host or cells: CHO cells
T7 sequence (P34969 whole entry): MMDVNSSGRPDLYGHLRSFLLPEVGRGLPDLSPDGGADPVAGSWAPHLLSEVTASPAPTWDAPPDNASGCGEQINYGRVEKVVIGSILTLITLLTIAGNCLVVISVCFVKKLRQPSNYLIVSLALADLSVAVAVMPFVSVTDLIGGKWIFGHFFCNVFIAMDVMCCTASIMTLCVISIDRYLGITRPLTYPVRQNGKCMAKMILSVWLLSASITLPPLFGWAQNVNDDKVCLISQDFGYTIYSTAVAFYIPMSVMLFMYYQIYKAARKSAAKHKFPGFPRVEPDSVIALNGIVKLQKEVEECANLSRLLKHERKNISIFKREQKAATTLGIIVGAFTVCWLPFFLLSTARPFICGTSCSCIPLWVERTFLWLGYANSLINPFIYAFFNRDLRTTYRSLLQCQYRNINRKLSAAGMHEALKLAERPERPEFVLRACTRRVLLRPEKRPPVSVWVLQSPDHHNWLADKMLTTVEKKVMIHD
The experiment in a line: Serotonin 5-HT7 radioligand binding ([3H]LSD). As to conditions: 2 h; read-out: Percent Inhibition of ligand binding Serotonin (1 μM ligand concentration) 5-HT7. As for the experimental part: To evaluate in radioligand binding assays the activity of compounds of the invention, human recombinant serotonin (5-Hydroxytryptamine) 5-HT7 receptor expressed in Chinese hamster ovary (CHO) cells (Roth, B. L. et al., J. Pharmacol. Exp. Ther. 268:1403, 1994; Shen, Y. et al., J. Biol. Chem. 268:18200, 1993) in a modified Tris-HCl buffer (50 mM Tris-HCl, pH 7.4, 10 mM MgCl2, 0.5 mM EDTA) was used. Compounds of invention were incubated with 5.5 nM [^3H]Lysergic acid diethylamide (LSD) for 2 hours at 25° C. Non-specific binding was estimated in the presence of […] Serotonin (5-HT). Receptor proteins were filtered and washed, the filters were then counted to determine [^3H]LSD specifically bound. Compounds were screened at 1 μM or lower, using 1% DMSO as vehicle. Biochemical assay results are presented as the percent inhibition of specific binding in Table 5.

T3 sequence (P14416 whole entry): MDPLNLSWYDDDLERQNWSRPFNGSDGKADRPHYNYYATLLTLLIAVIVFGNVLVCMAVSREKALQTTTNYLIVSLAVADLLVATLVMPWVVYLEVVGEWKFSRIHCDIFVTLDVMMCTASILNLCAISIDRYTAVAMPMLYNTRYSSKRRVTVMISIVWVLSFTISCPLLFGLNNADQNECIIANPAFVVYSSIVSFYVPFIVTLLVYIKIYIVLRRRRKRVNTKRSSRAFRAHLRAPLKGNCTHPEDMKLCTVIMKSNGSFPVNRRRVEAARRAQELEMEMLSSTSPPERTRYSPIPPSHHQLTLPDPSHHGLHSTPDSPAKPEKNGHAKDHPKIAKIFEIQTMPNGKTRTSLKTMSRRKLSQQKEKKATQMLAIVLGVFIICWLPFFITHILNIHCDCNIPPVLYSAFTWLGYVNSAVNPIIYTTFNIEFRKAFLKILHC
T1 sequence (P35367 whole entry): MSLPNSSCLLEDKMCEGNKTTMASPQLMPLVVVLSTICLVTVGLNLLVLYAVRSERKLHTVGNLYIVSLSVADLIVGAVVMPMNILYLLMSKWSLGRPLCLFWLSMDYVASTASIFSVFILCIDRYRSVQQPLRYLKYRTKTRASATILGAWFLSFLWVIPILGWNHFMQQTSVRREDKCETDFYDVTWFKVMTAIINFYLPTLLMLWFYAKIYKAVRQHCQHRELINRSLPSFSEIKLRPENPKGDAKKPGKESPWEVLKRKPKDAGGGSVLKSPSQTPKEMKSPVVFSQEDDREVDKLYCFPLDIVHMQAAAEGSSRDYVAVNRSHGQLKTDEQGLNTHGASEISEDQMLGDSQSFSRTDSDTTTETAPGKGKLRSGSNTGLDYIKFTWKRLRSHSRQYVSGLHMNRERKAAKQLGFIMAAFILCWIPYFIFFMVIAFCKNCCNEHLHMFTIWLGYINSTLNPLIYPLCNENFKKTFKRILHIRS

For the compound `CCC1c2c(c3cc(Cl)ccc3n2/C=C(\C)c2cccnc2)CCN1C` (centres unmarked) [Compound 108], the inhibition at 1 µM was 30% in experiment [1]; 12% in experiment [2]; -4% in experiment [3]; 45% in experiment [4]; 60% in experiment [5]; 6% in experiment [6]. Besides, the inhibition at 1 µM in experiment [7] was found to be 62%.

Consider `C/C(=C\n1c2c(c3cc(C)ccc31)CCN(C)C2)c1ccc(F)c(F)c1` [Compound 109, 9-(2-(3,4-difluorophenyl)prop-1-enyl)-2,6-dimethyl-2,3,4,9-tetrahydro-1H-pyrido[3,4-b]indole], for which the inhibition at 1 µM was 20% in experiment [1]; 67% in experiment [2]; 12% in experiment [3]; 96% in experiment [4]; 97% in experiment [5]; 72% in experiment [6]. The inhibition at 1 µM in experiment [7] is 96%.

For `C/C(=C\n1c2c(c3cc(Cl)ccc31)CCN(C)C2)c1ccc(F)c(F)c1` [Compound 110, 6-chloro-9-(2-(3,4-difluorophenyl)prop-1-enyl)-2-methyl-2,3,4,9-tetrahydro-1H-pyrido[3,4-b]indole], the inhibition at 1 µM in experiment [1] was 25%; in experiment [2], 64%; in experiment [3] it was 10%; in experiment [4], 93%; in experiment [5], 97%; in experiment [6], 73%. Also, the inhibition at 1 µM in experiment [7] was found to be 87%.

With `C/C(=C\n1c2c(c3cc(Cl)ccc31)CCN(C)C2C)c1ccc(F)c(F)c1` (centres unmarked) [Compound 111, 6-chloro-9-(2-(3,4-difluorophenyl)prop-1-enyl)-1,2-dimethyl-2,3,4,9-tetrahydro-1H-pyrido[3,4-b]indole], the inhibition at 1 µM in experiment [1] was found to be 60%; in experiment [2], 61%; in experiment [3] it was 5%; in experiment [4] it was 79%; in experiment [5], 93%; in experiment [6], 88%. In addition, the inhibition at 1 µM in experiment [7] was found to be 78%.

Consider `CCC1c2c(c3cc(Cl)ccc3n2/C=C(\C)c2ccc(F)c(F)c2)CCN1C` (centres unmarked) [Compound 112, 6-chloro-9-(2-(3,4-difluorophenyl)prop-1-enyl)-1-ethyl-2-methyl-2,3,4,9-tetrahydro-1H-pyrido[3,4-b]indole], for which the inhibition at 1 µM was 33% in experiment [1]; 38% in experiment [2]; 12% in experiment [3]; 82% in experiment [4]; 94% in experiment [5]; 61% in experiment [6]. Besides, the inhibition at 1 µM in experiment [7] was found to be 67%.

Turning to `C/C(=C\n1c2c(c3cc(C)ccc31)CCN(C)C2)c1ccc(Cl)c(Cl)c1` [Compound 113, 9-(2-(3,4-dichlorophenyl)prop-1-enyl)-2,6-dimethyl-2,3,4,9-tetrahydro-1H-pyrido[3,4-b]indole], the inhibition at 1 µM in experiment [1] is 26%; in experiment [2] it was 81%; in experiment [3], 9%; in experiment [4], 99%; in experiment [5] it was 91%; in experiment [6], 49%. Also, the inhibition at 1 µM in experiment [7] was determined as 84%.

Turning to `C/C(=C\n1c2c(c3cc(Cl)ccc31)CCN(C)C2)c1ccc(Cl)c(Cl)c1` [Compound 114, 6-chloro-9-(2-(3,4-dichlorophenyl)prop-1-enyl)-2-methyl-2,3,4,9-tetrahydro-1H-pyrido[3,4-b]indole], the inhibition at 1 µM in experiment [1] is 30%; in experiment [2] it was 75%; in experiment [3], 8%; in experiment [4] it was 93%; in experiment [5] it was 95%; in experiment [6], 42%. Besides, in experiment [7], the inhibition at 1 µM was 87%.

For `C/C(=C\n1c2c(c3cc(Cl)ccc31)CCN(C)C2C)c1ccc(Cl)c(Cl)c1` (centres unmarked) [Compound 115, 6-chloro-9-(2-(3,4-dichlorophenyl)prop-1-enyl)-1,2-dimethyl-2,3,4,9-tetrahydro-1H-pyrido[3,4-b]indole], the inhibition at 1 µM in experiment [1] is 50%; in experiment [2], 71%; in experiment [3], 0%; in experiment [4], 85%; in experiment [5], 86%; in experiment [6], 40%. For the same compound, the inhibition at 1 µM in experiment [7] was found to be 74%.

These data come from US9260429B2, “Pyrido[3,4-B]indoles and methods of use” (Medivation Technologies, Inc., priority 2008, dated 2016).
